{"source": "patent US20060241177A1", "about": "“Novel compounds, pharmaceutical compositions containing same, and methods of use for same” (priority 2002, published 2006)", "key": {"[1]": {"tested_on": "HCT-116 human colon cancer xenografts", "assay": "In vivo anti-tumor test, HCT-116 subcutaneous flank xenografts", "design": "species or system nu/nu female mice", "details": "10 mg/kg i.p. repeated, 11 treated animals, day 10, from repeated i.p. injection", "experimental": "In Vivo Testing for Anti-Tumor Activity\nSubcutaneous flank xenografts of the human colon cancer cell line, HCT-116 in nu/nu female mice (Harlan) were used to study the anti-tumor effects of Compound 1 in vivo. All animal experiments complied with institutional animal care guidelines. 10^7 HCT-116 cells (˜0.1 ml packed cells) were xenografted from culture in DMEM supplemented with 10% FBS into […]. Treatment began when measurable tumors developed about 3 days after inoculation. Compound 1 (10 mg/kg) was diluted into 40 μl DMSO and treated intraperitoneally (i.p.) 11 animals received JMM-III-231 10 mg/kg, i.p., at days indicated by arrows, and 11 received DMSO control. Tumors were measured on days indicated. […] Error bars represent standard error of the mean."}, "[2]": {"target": "rat liver acyl-CoA synthetase", "details": "Tomoda et al. 1987; Omura et al. 1986; read-out: 50% inhibition of rat liver acyl-CoA synthetase; cited from earlier work"}, "Raji cells": {"tested_on": "Raji cells", "details": "Tomoda et al. 1991; cited from earlier work"}, "viral HIV protease": {"target": "viral HIV protease (Human immunodeficiency virus type 1 group M subtype B, UniProt P04585)", "details": "Moelling et al. 1990; cited from earlier work"}}, "data": [{"smiles": "C=CCNC(=O)C1C(=C)C(=O)O[C@H]1CCCCCCCC", "note": "(mixture of isomers) [Compound 1, (±)-α-Methylene-γ-butyrolactone-5-octyl-4-allyl amide]", "values": [{"measurement": "Death of treated mice in xenograft study", "setting": "[1]", "value": "One Compound 1 treated mouse died on day 10"}]}, {"smiles": "CCCC=CCC=CC=CC=NN=NO", "note": "[Triacsin C, 1-hydroxy-3-(E, E, E-2′,4′,7′-undecatrienylidine) triazene]", "values": [{"measurement": "IC50", "setting": "[2]", "value": 8.7, "unit": "µM"}, {"measurement": "concentration causing growth inhibition in Raji cells", "setting": "Raji cells", "value": 1.0, "unit": "µM"}]}, {"smiles": "C/C=C/C/C=C/CCC(=O)[C@H]1O[C@H]1C(N)=O", "note": "[cerulenin, (2S,3R)-2,3-epoxy-4-oxo-7,10 dodecadienoyl amide]", "values": [{"measurement": "concentration for inhibition of viral HIV protease", "setting": "viral HIV protease", "value": 5, "unit": "mg/mL"}]}]}
